The source of these data is patent US7855183B2, “Methods of treatment of a bcl-2 disorder using bcl-2 antisense oligomers” (Genta Incorporated, priority 2000, dated 2010).

Experiment [1] has as its system LCLs (EBV-associated lymphoproliferative disease). The experiment in a line: Survival in the human-SCID model of PTLD. The conditions noted are these: for median survival: VP16 15 mg/kg ip q3dx4, G3139 10 mg/kg/d over 12 d ip, rituximab 20 mg/kg ip wklyx4, start 15 days after 20 million LCLs ip, untreated 50 days; for animals remaining tumor-free: monotherapy groups, stated jointly. The format is in vivo, mice. The text has this: (§1) The use of the targeted therapies, G3139 ([…], Genta, Inc.) and rituximab, to enhance chemosensitivity in EBV-associated lymphoproliferative disease (LPD) have been explored. EBV+LPDs such as post-transplant lymphoproliferative disorder (PTLD) and AIDS-related lymphoma (ARL) typically express bcl-2 and CD20. […] To determine whether these targeted therapies enhance chemosensitivity in EBV+LPD, the effects of cytotoxic drugs in combination with G3139 or rituximab on proliferation and apoptosis in LCLs were examined. […] To determine whether G3139 or rituximab enhanced the anti-tumor activity of chemotherapy in vivo, the effects of VP16 (15 mg/kg ip q3d×4); G3139 (10 mg/kg/d over 12 d ip q3d) or rituximab (20 mg/kg ip wkly×4); and VP16+G3139 or VP16+rituximab (same doses) on survival in the human-SCID model of PTLD were compared. Treatment was started 15 days after ip injection of 20 million LCLs.

The test system of experiment [2] is LCLs (lymphoblastoid cells). The experiment in a line: Proliferation and apoptosis in LCLs with cytotoxic drugs plus G3139 or rituximab. The experiment is classed as cell-based.
Excerpt: as §1

Take `COc1cc([C@@H]2c3cc4c(cc3[C@@H](O[C@@H]3O[C@@H]5CO[C@@H](C)O[C@H]5[C@H](O)[C@H]3O)[C@H]3COC(=O)[C@H]23)OCO4)cc(OC)c1O` [VP16, etoposide]: in experiment [1], the median survival is given as 86 days and the animals remaining tumor-free turned out to be 7%.
In the case of “rituximab: targeted therapy; EBV+LPDs typically express bcl-2 and CD20”, the “effect in combination with chemotherapy” value in experiment [2] was “augmented the effects of chemotherapy”. Besides, in experiment [2] (alone), the effect on apoptosis result was “no effect” and the effect on proliferation entry is “minimal”. In experiment [1], the median survival was determined as 88 days and the animals remaining tumor-free is listed as 7%.
